Tests used:
Assay type in all cases: cell-based, mouse
RAW 264.7 cells = experiment: MTT assay, cytotoxicity in RAW 264.7 cells; settings: 20 μM (highest concentration)
Method: In order to example whether the iNOS production inhibitory effect is attributable to the toxicity of the sample itself (inventive composition, thio-Cl-IB-MECA), an MTT (3-(4,5-dimethylthiazol-2-yl)-2,5-diphenyltetrazolium bromide) assay was performed.

TNF-α = TNF-α secretion (ELISA) and mRNA expression (RT-PCR) in LPS-stimulated RAW 264.7 cells
Method: TNF-α is a cytokine whose expression increases in cells stimulated by LPS, and it influences the expression of IL-1β and the progression of inflammatory reactions. Thus, the effect of the inventive composition on the expression of TNF-α was examined. Specifically, RAW 264.7 cells were pretreated with each of 20, 10 and 5 μM of the inventive composition (thio-Cl-IB-MECA) and treated with LPS (1 μg/ml) to induce inflammatory reactions. Then, the cells were incubated for 6 hours, after which the supernatant was taken and the amount of TNF-α secreted into the supernatant was measured using an ELISA ([…]) kit.
In addition, in order to examine whether TNF-α is expressed at the gene level, the effect of the inventive composition on the expression of TNF-α mRNA was also tested using the RT-PCR method.

iNOS = experiment: Expression of iNOS protein and gene (Western blot, RT-PCR) in LPS-stimulated RAW 264.7 cells
Method: The effects of the inventive composition on the expression of iNOS protein and mRNA were examined by Western blot analysis and RT-PCR. Specifically, RAW 264.7 cells were diluted with 10% FBS-containing medium to a density of 1×10^6 cells per 100 mm culture dish and cultured under the conditions of 37° C. and 5% CO2 for 24 hours, followed by washing twice with PBS. The cells were pretreated with each of 20 μM (the highest concentration showing no cytotoxicity), 10 μM and 5 μM of thio-Cl-IB-MECA in 10% FBS-containing medium, and inflammatory reactions in the cells were induced by LPS (1 μg/ml), followed by culture for 18 hours. […] The cells were thawed at 37° C. immediately before use and used in protein quantification and electrophoresis.
Protein quantification was performed using the BCA method, and […] of the protein was electrophoresed on 8-12% SDS-polyacrylamide gel at 150 V for 110 minutes. […] The membrane was washed 2-3 times with PBST for 5 minutes each time, after which HRP-conjugated secondary antibody was diluted at a ratio of 1:1,500-1:2,000 and incubated with the membrane at room temperature for 2-3 hours. the membrane was washed three times with PBST for 5 minutes each time and treated with a Western blot substrate (WESTSAVE Up™), and the produced luminescence was examined using LAS-3000. […]

[1] = tested on: Wnt signaling-related proteins; experiment: PI-3 kinase / Wnt signaling proteins and β-catenin expression in LPS-stimulated RAW 264.7 cells
Method: A test was carried out to examine the effects of the inventive composition on the expressions of PI-3 kinase (which influences the NF-κB signaling pathway) and Wnt signaling-related proteins in RAW 264.7 cells. Specifically, RAW 264.7 cells were treated with the inventive composition (20 μM thio-Cl-IB-MECA), and after 30 minutes, were stimulated by LPS. At intervals of 5, 15, 30 and 60 minutes after culture, proteins were extracted from all the cells, and the effects of the inventive composition on the expressions of the proteins were measured in comparison with those in the control group treated with only LPS.
In order to examine the intranuclear movement of β-catenin and the accumulation of β-catenin in the cytoplasm, RAW 264.7 cells were treated with each of 5, 10 and 20 μM of the inventive composition (thio-Cl-IB-MECA), and after 30 minutes, the cells were stimulated by LPS. After 1 hour of culture, the cells were collected and separated into a nuclear extract and a cytosol extract. The expressions of β-catenin protein in the cytosol and nuclear portions were analyzed by Western blot, and the results of the analysis are shown in FIG. 7b. […] When no LPS stimulation is applied, β-catenin is degraded by phosphorylation.

[2] = 20 μM, LPS stimulation, 5, 15, 30, 60 min

Which “viability of RAW 264.7 cells (MTT)” value (RAW 264.7 cells) does the source give for `CNC(=O)[C@H]1S[C@@H](n2cnc3c(NCc4cccc(I)c4)nc(Cl)nc32)[C@H](O)[C@@H]1O` [thio-Cl-IB-MECA, 2-chloro-N^6-(3-iodobenzyl)-4′-thioadenosine-5′-N-methyluronamide] here?
Its value is 80%.

What about the “amount of TNF-α secreted” value (TNF-α; ELISA, 5, 10, 20 μM, LPS 1 μg/ml, 6 hours) of the same molecule?
Its value is “concentration-dependently inhibited”.

What about the “expression of TNF-α mRNA” value (TNF-α; RT-PCR) of the same molecule?
Its value is “also inhibited”.

What about the “expression of iNOS gene” value (iNOS; RT-PCR, 5, 10 or 20 μM, vs LPS control) of the same molecule?
The value was “inhibited the expression of iNOS gene in a concentration-dependent manner”.

What about the “expression of iNOS protein” value (iNOS; Western blot, 5, 10, 20 μM, LPS 1 μg/ml, 18 hours) of the same molecule?
Its value is “inhibited the expression of iNOS protein in a concentration-dependent manner”.

What about the “expression of p-AKT” value [1, 2] of the same molecule?
Its value is “also inhibited at 30 min and 60 min”.

What about the “expression of p-GSK 3α/β” value [1, 2] of the same molecule?
The value was “inhibited at 30 min and 60 min”.

What about the “expression of p-β-catenin” value ([1]; 5, 10 and 20 μM, LPS, 1 hour) of the same molecule?
Its value is “concentration-dependently inhibited”.

What about the “expressions of β-catenin in the cytosol and nuclear portions” value ([1]; 5, 10 and 20 μM, LPS, 1 hour) of the same molecule?
The value was “concentration-dependently inhibited”.
